For two compounds, ED50 results are on record in US5260298A, “Imidazatriazoloquinazoline compounds and their use” (Novo Nordisk A/S, priority 1991, dated 1993).

The test system of this test is benzodiazepine receptors. Kind of test: in vivo displacement of 3H-flunitrazepam binding from benzodiazepine receptors in a living brain. The following applies: dose which reduces specific binding of 3H-flunitrazepam to benzodiazepine receptors in a living brain to 50% of the control value. From the text:
The pharmaceutical properties of the compounds of the invention can be illustrated by determining their capability for displacing radioactive labelled flunitrazepam from benzodiazepine receptors.
The displacement activity of the compounds of the invention may be found by determining the ED50 value. The ED50 value represents the dose (mg/kg) of a test substance which causes the specific binding of ^3 H-flunitrazepam to benzodiazepine receptors in a living brain to be reduced to 50% of the control value.
Such an in vivo test is carried out as described in U.S. Pat. No. 4,774,245.
For orientation: In a radioligand displacement assay an active substance lowers the binding of a labelled ligand.

Structures are written as SMILES.

One may read the ED50 as the dose that gives a 50% effect, or the effect in half of the subjects. Read a high ED50 as weaker potency. `c1ccc2c(c1)c1ncnn1c1c(-c3nc(C4CC4)no3)ncn21` [Compound 3, 5-(3-cyclopropyl-1,2,4-oxadiazol-5-yl)-imidazo[1,5-a]-[1,2,4]triazolo[1,5-c]quinazoline] came in with an ED50 of 0.16 mg/kg.

For `Clc1cccc2c1c1ncnn1c1c(-c3nc(C4CC4)no3)ncn21` [Compound 5, 12-chloro-5-(3-cyclopropyl-1,2,4-oxadiazol-5-yl)-imidazo[1,5-a][1,2,4]triazolo[1,5-c]quinazoline], the ED50 is recorded as 0.30 mg/kg.
